Laboratory results taken from PMC8765460 (Antimicrobial Agents and Chemotherapy, 2022).
Like-named read-outs stand apart in the source and are kept apart here.

How the values were obtained:
[1] = molecular target: G118R integrase-DNA complex (Human immunodeficiency virus type 1 group M subtype B, UniProt P04585, G1265R); experiment: Dissociation of 3H-labeled INSTIs from integrase-DNA complexes (scintillation proximity assay); format: binding, HIV-1; conditions: for t1/2 (dissociative half-life): ln 2 divided by mean koff
Procedure: (§1) Dissociation of INSTIs from integrase-DNA complexes was evaluated as previously described ([35]). Briefly, biotinylated viral long-terminal-repeat DNA duplexes were prepared and attached to streptavidin-coated scintillation proximity assay imaging beads. Wild-type and R263K, G118R, or G118R/E138K mutant integrase-DNA-bead complexes were formed, and unbound protein was removed. […] Relative binding (RB) was calculated as the ratio of dissociation signal to high signal and fit with the equation RB = EP + ΔRB(e^−^k^off^t), where EP is the RB endpoint, koff is the dissociation rate constant, ΔRB is the change in RB, and t is time, using the SigmaPlot program (Systat Software, San Jose, CA).

[2] = molecular target: R263K integrase-DNA complex (Human immunodeficiency virus type 1 group M subtype B, UniProt P04585, R1410K); experiment: as above; format: binding, HIV-1; conditions: for t1/2 (dissociative half-life): ln 2 divided by mean koff
Procedure: as §1

[3] = molecular target: T1, wild-type integrase-DNA complex (Human immunodeficiency virus type 1 group M subtype B, UniProt P04585); experiment: as above; format: binding, HIV-1; conditions: for t1/2 (dissociative half-life): Wild-type integrase-DNA complex, ln 2 divided by mean koff; for koff: read-out: koff (mean ± SD)
Procedure: as §1

[4] = molecular target: G118R/E138K integrase-DNA complex (Human immunodeficiency virus type 1 group M subtype B, UniProt P04585, E1285K/G1265R); experiment: as above; format: binding, HIV-1; conditions: for t1/2 (dissociative half-life): G118R, E138K integrase-DNA complex, ln 2 divided by mean koff
Procedure: as §1

[5] = system: HIV-1 variant clones (participant-derived integrase); experiment: Clonal integrase phenotyping of variant clones (Monogram Biosciences); format: cell-based; conditions: fold change in IC50 relative to wild-type
[6] = system: HIV-1; parameters: method as in PMID 30732940; conditions: cited from earlier work
[7] = system: HIV-1; conditions: 12 participants switched at week 48
Text: Confirmed virologic withdrawal criteria were defined as 2 consecutive measurements with a decrease in plasma HIV-1 RNA of <1.0 log10 copies/mL by week 16 (unless HIV-1 RNA levels were <400 copies/mL), plasma HIV-1 RNA levels of ≥400 copies/mL at or after week 24, or plasma HIV-1 RNA levels of ≥400 copies/mL after confirmed HIV-1 RNA levels of <400 copies/mL. Participants who met CVW criteria were withdrawn from the study. For this ad hoc assessment carried out after the week 48 analysis, participants with available data through 12 September 2019 were included.

[8] = system: recombinant viruses containing participant-derived integrase sequences; conditions: for Fold change in dolutegravir sensitivity: fold change in IC50 relative to wild-type, clinical cutoff 4.0
Procedure: HIV-1 genotyping and phenotyping of plasma samples at baseline and the first sample of the 2 required to meet CVW criteria were conducted by Monogram Biosciences (South San Francisco, CA) using PhenoSense Integrase, PhenoSense GT, and GeneSeq Integrase assays, with the PhenoSense GT Plus Integrase assay used as a backup alternative in case of initial resistance assay failure.

[9] = molecular target: T1, wild-type integrase-DNA complex; conditions: cited from earlier work
[10] = patient 1, Baseline, R263K clones (3 clones)
[11] = patient 1, Baseline, Wild-type clones (5 clones)
[12] = patient 1, CVW (wk 36), Wild-type clones (8 clones)
[13] = patient 2, Baseline, T66I clone (1 clone)
[14] = patient 2, Baseline, Wild-type clones (7 clones)
[15] = patient 2, CVW (wk 36), G118R clones (8 clones)
[16] = patient 3, Baseline, Wild-type clones (16 clones)
[17] = patient 3, CVW (wk 48), G118R, E138K, R263K clones (13 clones)
[18] = patient 3, CVW (wk 48), H51Y, G118R clones (3 clones)

SMILES: C[C@@H]1CCO[C@H]2Cn3cc(C(=O)NCc4ccc(F)cc4F)c(=O)c(O)c3C(=O)N12 [Dolutegravir, dolutegravir]
- fold increase in dissociation rate constant (koff) relative to the wild type [1]: 8.6 fold
- t1/2 (dissociative half-life) [1]: 10.7 h
- t1/2 (dissociative half-life) ([1]; listed as dolutegravir): ~10 h
- fold increase in dissociation rate constant (koff) relative to the wild type [2]: 1.8 fold
- t1/2 (dissociative half-life) [2]: 52 h
- t1/2 (dissociative half-life) ([2]; listed as dolutegravir): ~50 h
- t1/2 (dissociative half-life) [3]: 92 h
- koff [3]: 2.1e-06 ± 1e-07 s⁻¹
- fold increase in dissociation rate constant (koff) relative to the wild type ([4]; G118R plus E138K integrase-DNA complex): 9.0 fold
- t1/2 (dissociative half-life) [4]: 10.1 h
- Fold change in median drug sensitivity [5, 10]: 1.81
- Fold change in median drug sensitivity [5, 11]: 0.87
- Fold change in median drug sensitivity [5, 12]: 0.77
- Fold change in median drug sensitivity [5, 13]: 0.33
- Fold change in median drug sensitivity [5, 14]: 0.93
- Fold change in median drug sensitivity [5, 15]: 30.5
- Fold change in median drug sensitivity [5, 16]: 1.08
- Fold change in median drug sensitivity [5, 17]: 13
- Fold change in median drug sensitivity [5, 18]: 11
- participants meeting CVW who developed treatment-emergent genotypic and phenotypic INSTI resistance ([6]; through the week 48 analysis): 2 of 11
- virologic suppression (HIV-1 RNA levels of <50 copies/mL) versus comparator ([6]; week 48, both in combination with 2 NRTIs): superiority to ritonavir-boosted lopinavir
- INSTI resistance in participants who switched from ritonavir-boosted lopinavir to the dolutegravir regimen [7]: None of the 12 participants
- change in in vitro dolutegravir resistance versus baseline levels ([8]; 6 participants with treatment-emergent INSTI resistance-associated substitutions): > 10 fold
- median fold change in dolutegravir susceptibility at CVW ([8]; participants with treatment-emergent integrase substitutions (6 participants)): 25
- Fold change in dolutegravir sensitivity ([8]; patient 1, Baseline, subtype C, INSTI mutation R263R/K): 1.03
- Fold change in dolutegravir sensitivity ([8]; patient 1, Wk 36 (CVW), no INSTI mutation): 0.79
- Fold change in dolutegravir sensitivity ([8]; patient 2, Baseline, subtype B): 1.02
- Fold change in dolutegravir sensitivity ([8]; patient 2, Wk 36 (CVW), G118R): 30
- Fold change in dolutegravir sensitivity ([8]; patient 3, Baseline, subtype C): 1.26
- Fold change in dolutegravir sensitivity ([8]; patient 3, Wk 48 (CVW), H51H/Y, G118R, E138E/K, 263R/K): 15
- Fold change in dolutegravir sensitivity ([8]; patient 4, Baseline, subtype A1, L74I): 0.93
- Fold change in dolutegravir sensitivity ([8]; patient 4, Wk 48 (CVW), L74I, G118G/R, E138E/K, 148Q/R, R263R/K): 20
- Fold change in dolutegravir sensitivity ([8]; patient 5, Baseline, subtype Complex): 0.59
- Fold change in dolutegravir sensitivity ([8]; patient 5, Wk 60 (CVW), E138K, G140S, Q148H, N155H): >106.45
- Fold change in dolutegravir sensitivity ([8]; patient 6, Baseline, subtype C, L74L/I): 0.6
- Fold change in dolutegravir sensitivity ([8]; patient 6, Wk 72 (CVW), T66T/I, L74I, G118R, E138E/K): 22
- Fold change in dolutegravir sensitivity ([8]; patient 7, Baseline, subtype C): 0.98
- Fold change in dolutegravir sensitivity ([8]; patient 7, Wk 168 (CVW), G118R): 28

SMILES: Cc1nnc(C(=O)NC(C)(C)c2nc(C(=O)NCc3ccc(F)cc3)c(O)c(=O)n2C)o1 [Raltegravir, raltegravir]
- fold increase in dissociation rate constant (koff) relative to the wild type [1]: 3.4 fold
- t1/2 (dissociative half-life) [1]: 2.7 h
- fold increase in dissociation rate constant (koff) relative to the wild type [2]: no change in koff
- t1/2 (dissociative half-life) [2]: 9.6 h
- t1/2 (dissociative half-life) [3]: 9.2 h
- koff [3]: 2.1e-05 ± 2e-06 s⁻¹
- t1/2 (dissociative half-life) [4]: 3.2 h
- Fold change in median drug sensitivity [5, 10]: 1.09
- Fold change in median drug sensitivity [5, 11]: 0.88
- Fold change in median drug sensitivity [5, 12]: 0.89
- Fold change in median drug sensitivity [5, 13]: 0.58
- Fold change in median drug sensitivity [5, 14]: 1.18
- Fold change in median drug sensitivity [5, 15]: 24
- Fold change in median drug sensitivity [5, 16]: 1.03
- Fold change in median drug sensitivity [5, 17]: 2.03
- Fold change in median drug sensitivity [5, 18]: 4.43
- t1/2 (dissociative half-life), previously measured [9]: 8.8 h
